Assays:
[1] = tested on: B cell surface CLIP; experiment: Effect on B cell surface CLIP (Figure 4); format: cell-based
[2] = tested on: mouse splenic B cells; experiment: TLR ligand induced ectopic CLIP on mouse splenic B cells in vitro (15G4 anti-CLIP/I-Ab versus B220); format: cell-based; settings: treatment in vitro; figure 12d
Source text: Mouse splenocytes or T-depleted splenocytes were red cell depleted using Geys Solution, and cells were counted. For T-depleted B cell preparations, B cells were separated by discontinuous Percoll (Pharmacia LKB Biotechnology, Piscataway, NJ) gradients (13). Those cells layering at the 1.079/1.085 g/ml interface (1.079 < ρ ≤ 1.085) are designated throughout as resting B cells. Cells layering at the BSS/1.066 g/ml interface (ρ ≤ 1.066) are designated as activated. Viable cells from this latter interface were isolated using Lympholyte-M (Cedarlane Laboratories, Ltd., Hornby, Ontario, Canada). Cells from each layer were harvested, washed, and resuspended at 10^7 cells/ml in PBS containing 5% fetal calf serum.
Total splenocytes, from either B6.129, Ii-deficient, or H2M-deficient mice were cultured with LPS for 24, 48, 72, or 96 hours as indicated. Cells were harvested and stained by two-color fluorescence using 15G4-FITC anti-mouse CLIP/I-A^b versus anti-mouse B220 PE. […]
Freshly isolated splenocytes, single cell suspensions of lymph node cells, resting (or activated) B cells, or primed B cells were isolated from B6.129, Ii-deficient, or H2M-deficient mice and cultured in 24 well plates in complete RPMI medium, with or without the appropriate Toll ligand, at 10^6 cells/ml. […] Cells were stained by two-color fluorescence using 15G4-FITC anti-mouse CLIP/I-A^b versus anti-mouse B220 PE. […]

Compound | B cell surface CLIP [1] | exogenous CLIP expression on the activated mouse B cells [2]
OC[C@H]1OC(O)C[C@@H](O)[C@@H]1O (some centres unmarked) [2-Deoxyglucose, 2-deoxyglucose] | affects B cell surface CLIP | –
CCOCc1nc2c(N)nc3ccccc3c2n1CC(C)(C)O [R848, imidazoquinoline resiquimod] | – | resulted in exogenous CLIP expression
